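96-well plates; 48 h exposure; 5 concentrations. Endpoints by linear interpolation between flanking doses. Not reached: highest tested concentration assigned. Here, GI50 denotes the concentration required for 50% inhibition of growth. At the TGI there is no net growth.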
How the values were obtained:
Assay in all cases: inhibition of tumour cell growth, NCI panel, 48 h
786-0 renal = test system: 786-0 renal
A498 renal = test system: A498 renal
A549 NSCLC = test system: A549 NSCLC
ACHN renal = test system: ACHN renal
BT-549 breast = test system: BT-549 breast
CAKI-1 renal = test system: CAKI-1 renal
CCRF-CEM leukemia = test system: CCRF-CEM leukemia
COLO 205 colon = test system: COLO 205 colon
DU-145 prostate = test system: DU-145 prostate
EKVX NSCLC = test system: EKVX NSCLC
HCC-2998 colon = test system: HCC-2998 colon
HCT-116 colon = test system: HCT-116 colon
HCT-15 colon = test system: HCT-15 colon
HL-60(TB) leukemia = test system: HL-60(TB) leukemia
HOP-62 NSCLC = test system: HOP-62 NSCLC
HOP-92 NSCLC = test system: HOP-92 NSCLC
HS 578T breast = test system: HS 578T breast
HT29 colon = test system: HT29 colon
IGROV1 ovarian = test system: IGROV1 ovarian
K-562 leukemia = test system: K-562 leukemia
KM12 colon = test system: KM12 colon
LOX IMVI melanoma = test system: LOX IMVI melanoma
M14 melanoma = test system: M14 melanoma
MALME-3M melanoma = test system: MALME-3M melanoma
MCF7 breast = test system: MCF7 breast
MDA-MB-231 breast = test system: MDA-MB-231 breast
MDA-MB-435 = test system: MDA-MB-435
MOLT-4 leukemia = test system: MOLT-4 leukemia
NCI-H226 lung = test system: NCI-H226 lung
NCI-H460 lung = test system: NCI-H460 lung
NCI-H522 lung = test system: NCI-H522 lung
NCI/ADR-RES ovarian = test system: NCI/ADR-RES ovarian
OVCAR-3 ovarian = test system: OVCAR-3 ovarian
OVCAR-4 ovarian = test system: OVCAR-4 ovarian
OVCAR-5 ovarian = test system: OVCAR-5 ovarian
OVCAR-8 ovarian = test system: OVCAR-8 ovarian
PC-3 prostate = test system: PC-3 prostate
RPMI-8226 leukemia = test system: RPMI-8226 leukemia
RXF 393 renal = test system: RXF 393 renal
SF-268 CNS = test system: SF-268 CNS
SF-295 CNS = test system: SF-295 CNS
SF-539 CNS = test system: SF-539 CNS
SK-MEL-2 melanoma = test system: SK-MEL-2 melanoma
SK-MEL-28 melanoma = test system: SK-MEL-28 melanoma
SK-MEL-5 melanoma = test system: SK-MEL-5 melanoma
SK-OV-3 ovarian = test system: SK-OV-3 ovarian
SN12C renal = test system: SN12C renal
SNB-19 CNS = test system: SNB-19 CNS
SNB-75 CNS = test system: SNB-75 CNS
SR leukemia = test system: SR leukemia
SW-620 colon = test system: SW-620 colon
T-47D breast = test system: T-47D breast
TK-10 renal = test system: TK-10 renal
U251 CNS = test system: U251 CNS
UACC-257 melanoma = test system: UACC-257 melanoma
UACC-62 melanoma = test system: UACC-62 melanoma
UO-31 renal = test system: UO-31 renal

## CCOP(=O)(OCC)OC[C@]12CC[C@@H](C)[C@H](C)C1C1=CC[C@@H]3[C@@]4(C)CCCNC(C)(C)[C@@H]4CC[C@@]3(C)[C@]1(C)CC2 (some centres undefined)
786-0 renal
  GI50: 1510 nM
  TGI: 2980 nM
A498 renal
  GI50: 5080 nM
  TGI: 21800 nM
A549 NSCLC
  GI50: 1780 nM
  TGI: 3540 nM
ACHN renal
  GI50: 1720 nM
  TGI: 3110 nM
BT-549 breast
  GI50: 4490 nM
  TGI: 17600 nM
CAKI-1 renal
  GI50: 1440 nM
  TGI: 2790 nM
CCRF-CEM leukemia
  GI50: 2530 nM
  TGI: 8140 nM
COLO 205 colon
  GI50: 2060 nM
  TGI: 4230 nM
DU-145 prostate
  GI50: 1940 nM
  TGI: 3710 nM
EKVX NSCLC
  GI50: 1530 nM
  TGI: 2960 nM
HCC-2998 colon
  GI50: 1850 nM
  TGI: 3420 nM
HCT-116 colon
  GI50: 1690 nM
  TGI: 3210 nM
HCT-15 colon
  GI50: 1680 nM
  TGI: 3170 nM
HL-60(TB) leukemia
  GI50: 1670 nM
  TGI: 3470 nM
HOP-62 NSCLC
  GI50: 1950 nM
  TGI: 3930 nM
HOP-92 NSCLC
  GI50: 1510 nM
  TGI: 4510 nM
HS 578T breast
  GI50: 2680 nM
  TGI: 8090 nM
HT29 colon
  GI50: 1880 nM
  TGI: 4090 nM
IGROV1 ovarian
  GI50: 1570 nM
  TGI: 3000 nM
K-562 leukemia
  GI50: 1570 nM
  TGI: 3320 nM
KM12 colon
  GI50: 1910 nM
  TGI: 3570 nM
LOX IMVI melanoma
  GI50: 1210 nM
  TGI: 2560 nM
M14 melanoma
  GI50: 1740 nM
  TGI: 3320 nM
MALME-3M melanoma
  GI50: 1650 nM
  TGI: 3120 nM
MCF7 breast
  GI50: 1590 nM
  TGI: 3170 nM
MDA-MB-231 breast
  GI50: 1700 nM
  TGI: 3190 nM
MDA-MB-435
  GI50: 1760 nM
  TGI: 3310 nM
MOLT-4 leukemia
  GI50: 1520 nM
  TGI: 3510 nM
NCI-H226 lung
  GI50: 4980 nM
  TGI: 23300 nM
NCI-H460 lung
  GI50: 1830 nM
  TGI: 3460 nM
NCI-H522 lung
  GI50: 1840 nM
  TGI: 3910 nM
NCI/ADR-RES ovarian
  GI50: 1790 nM
  TGI: 3390 nM
OVCAR-3 ovarian
  GI50: 1720 nM
  TGI: 3330 nM
OVCAR-4 ovarian
  GI50: 2270 nM
  TGI: 6130 nM
OVCAR-5 ovarian
  GI50: 1680 nM
  TGI: 3090 nM
OVCAR-8 ovarian
  GI50: 1900 nM
  TGI: 3960 nM
PC-3 prostate
  GI50: 1570 nM
  TGI: 3150 nM
RPMI-8226 leukemia
  GI50: 2200 nM
  TGI: 5700 nM
RXF 393 renal
  GI50: 1310 nM
  TGI: 2690 nM
SF-268 CNS
  GI50: 2510 nM
  TGI: 9240 nM
SF-295 CNS
  GI50: 1780 nM
  TGI: 3340 nM
SF-539 CNS
  GI50: 1630 nM
  TGI: 3040 nM
SK-MEL-2 melanoma
  GI50: 4800 nM
  TGI: 20700 nM
SK-MEL-28 melanoma
  GI50: 1690 nM
  TGI: 3110 nM
SK-MEL-5 melanoma
  GI50: 1690 nM
  TGI: 3110 nM
SK-OV-3 ovarian
  GI50: 3270 nM
  TGI: 10600 nM
SN12C renal
  GI50: 1530 nM
  TGI: 2940 nM
SNB-19 CNS
  GI50: 1690 nM
  TGI: 3240 nM
SNB-75 CNS
  GI50: 2830 nM
  TGI: 15600 nM
SR leukemia
  GI50: 1410 nM
  TGI: 3640 nM
SW-620 colon
  GI50: 1820 nM
  TGI: 3450 nM
T-47D breast
  GI50: 1600 nM
  TGI: 3780 nM
TK-10 renal
  GI50: 3490 nM
  TGI: 12800 nM
U251 CNS
  GI50: 1650 nM
  TGI: 3350 nM
UACC-257 melanoma
  GI50: 2130 nM
  TGI: 4950 nM
UACC-62 melanoma
  GI50: 1550 nM
  TGI: 3110 nM
UO-31 renal
  GI50: 1440 nM
  TGI: 2930 nM
